From PMC7216583 (Parasites & Vectors, 2020)
Values joined by “and” are separate entries in the source; they are usually repeats but may differ in a detail not shown here. Equal entries are not always repeated. Where two headings read alike, the source gives them in different places.

Tests used:
[1] = tested on: Toxoplasma gondii RH-2F tachyzoites; experiment: microbe, parasite or virus in culture; settings: 72 h
[2] = target: CB2; set-up: method as in S-inhibitor; settings: ref S-inhibitor; cited from earlier work
[3] = tested on: CDK3/Cyclin E; settings: read-out: IC50, CDK3/Cyclin E; ref S-inhibitor; cited from earlier work
[4] = tested on: CDK1/cyclin B; set-up: method as in S-inhibitor; settings: ref S-inhibitor; cited from earlier work
[5] = tested on: CDK4/cyclin D1; settings: read-out: IC50, CDK4/Cyclin D1; ref S-inhibitor; cited from earlier work
[6] = tested on: CDK6/Cyclin D3; settings: read-out: IC50, CDK6/Cyclin D3; ref S-inhibitor; cited from earlier work
[7] = tested on: CDK5/p35; settings: read-out: IC50, CDK5/p35; ref S-inhibitor; cited from earlier work
[8] = tested on: Akt1; set-up: method as in S-inhibitor; settings: ref S-inhibitor; cited from earlier work
[9] = tested on: Akt3; set-up: method as in S-inhibitor; settings: ref S-inhibitor; cited from earlier work
[10] = tested on: Akt2; set-up: method as in S-inhibitor; settings: ref S-inhibitor; cited from earlier work
[11] = tested on: S6K; set-up: method as in S-inhibitor; settings: ref S-inhibitor; cited from earlier work
[12] = tested on: MEK1; set-up: method as in library vendor description; settings: ref library vendor description; cited from earlier work
[13] = tested on: Toxoplasma gondii RH-2F tachyzoites; settings: preliminary screen, mean
[14] = target: phosphodiesterase; set-up: method as in S-inhibitor; settings: ref S-inhibitor; cited from earlier work
[15] = tested on: Tyro3; set-up: method as in S-inhibitor; settings: ref S-inhibitor; cited from earlier work
[16] = in vitro; settings: human; for viability at 72 h: Host viability (%) mean
[17] = tested on: c-Met; set-up: method as in S-inhibitor; settings: ref S-inhibitor; cited from earlier work
[18] = tested on: Ron; set-up: method as in S-inhibitor; settings: ref S-inhibitor; cited from earlier work
[19] = tested on: Abl; set-up: method as in library vendor description; settings: ref library vendor description; cited from earlier work
[20] = tested on: hSGLT2; settings: read-out: EC50, hSGLT2; ref S-inhibitor; cited from earlier work
[21] = target: reverse transcriptase; settings: read-out: IC50, reverse transcriptase; ref S-inhibitor; cited from earlier work
[22] = tested on: MAPKAP-K1b; set-up: method as in S-inhibitor; settings: ref S-inhibitor; cited from earlier work
[23] = tested on: MSK1; set-up: method as in S-inhibitor; settings: ref S-inhibitor; cited from earlier work
[24] = tested on: PKA; set-up: method as in S-inhibitor; settings: ref S-inhibitor; cited from earlier work
[25] = tested on: PKBα; set-up: method as in S-inhibitor; settings: ref S-inhibitor; cited from earlier work
[26] = tested on: S6K1; set-up: method as in S-inhibitor; settings: ref S-inhibitor; cited from earlier work
[27] = tested on: Aurora B; set-up: method as in S-inhibitor; settings: ref S-inhibitor; cited from earlier work
[28] = target: T. brucei Aurora kinase-1 (TbAUK1); set-up: method as in S-inhibitor; settings: ref S-inhibitor; cited from earlier work
[29] = tested on: VEGFR2; set-up: method as in S-inhibitor; settings: ref S-inhibitor; cited from earlier work
[30] = tested on: PDGFRα; set-up: method as in S-inhibitor; settings: ref S-inhibitor; cited from earlier work
[31] = tested on: PDGFRβ; set-up: method as in S-inhibitor; settings: ref S-inhibitor; cited from earlier work
[32] = tested on: VEGFR1; set-up: method as in S-inhibitor; settings: ref S-inhibitor; cited from earlier work
[33] = tested on: ATM; set-up: method as in S-inhibitor; settings: ref S-inhibitor; cited from earlier work
[34] = tested on: BACE1; set-up: method as in S-inhibitor; settings: two values given; ref S-inhibitor; cited from earlier work
[35] = tested on: Aβ secretion; set-up: method as in S-inhibitor; settings: ref S-inhibitor; read-out: EC50, decrease of Aβ secretion; cited from earlier work
[36] = tested on: HSP90β; set-up: method as in S-inhibitor; settings: ref S-inhibitor; cited from earlier work
[37] = tested on: CDK6; set-up: method as in S-inhibitor; settings: ref S-inhibitor; cited from earlier work
[38] = tested on: CDK4; set-up: method as in S-inhibitor; settings: ref S-inhibitor; cited from earlier work
[39] = target: PDPK1; set-up: method as in S-inhibitor; settings: ref S-inhibitor; cited from earlier work
[40] = tested on: LPS-induced TNF-α release; set-up: method as in S-inhibitor; settings: ref S-inhibitor; cited from earlier work
[41] = tested on: some cell lines; set-up: method as in S-inhibitor; settings: ref S-inhibitor; cited from earlier work
[42] = tested on: v-Abl; set-up: method as in library vendor description; settings: ref library vendor description; cited from earlier work
[43] = target: γ-secretase; set-up: method as in S-inhibitor; settings: ref S-inhibitor, cited from earlier work
[44] = tested on: Notch signaling; set-up: method as in S-inhibitor; settings: ref S-inhibitor; cited from earlier work
[45] = tested on: GSK-3β; set-up: method as in S-inhibitor; settings: ref S-inhibitor; cited from earlier work
[46] = tested on: HCV NS3-4A serine protease; set-up: method as in S-inhibitor; settings: ref S-inhibitor; cited from earlier work
[47] = tested on: Tie2; set-up: method as in S-inhibitor; settings: ref S-inhibitor; cited from earlier work
[48] = tested on: LAP; set-up: method as in S-inhibitor; settings: ref S-inhibitor; cited from earlier work
[49] = tested on: PuSA; set-up: method as in S-inhibitor; settings: ref S-inhibitor; cited from earlier work
[50] = target: Aminopeptidase N; set-up: method as in S-inhibitor; settings: ref S-inhibitor; cited from earlier work
[51] = tested on: CFTR; set-up: method as in S-inhibitor; settings: ref S-inhibitor; cited from earlier work
[52] = tested on: MEK5; set-up: method as in S-inhibitor; settings: ref S-inhibitor; cited from earlier work
[53] = tested on: cleavage of Tyr from Met-enkephalin; set-up: method as in S-inhibitor; settings: ref S-inhibitor; read-out: IC50, inhibition of cleavage of Tyr from Met-enkephalin; cited from earlier work
[54] = read-out: Parasite inhibition (%) mean, preliminary screen, mean
[55] = read-out: Parasite inhibition (%) mean

CN1CCCCC1Cn1cc(C(=O)c2cc([N+](=O)[O-])ccc2I)c2ccccc21 (stereo not shown) [AM-1241]
inhibition of growth at 5 µM [1, 54]: -8.8% | Ki [2]: 3.4 nM

O=C(NC1CCNCC1)c1[nH]ncc1NC(=O)c1c(Cl)cccc1Cl [AT7519]
inhibition of growth at 5 µM [1, 54]: -11.7% | IC50 [3]: 360 nM | IC50 [4]: […] | IC50 [5]: […] | IC50 [6]: 170 nM | IC50 [7]: 13 nM

Clc1ccc(C2(c3ccc(-c4cn[nH]c4)cc3)CCNCC2)cc1 [AT7867]
inhibition of growth at 5 µM [1, 54]: 46.4% | IC50 [8]: 32 nM | IC50 [9]: 47 nM | IC50 [10]: 17 nM | IC50 [11]: 85 nM

Cn1cnc2c(F)c(Nc3ccc(Br)cc3Cl)c(C(=O)NOCCO)cc21 [AZD6244 (Selumetinib)]
inhibition of growth at 5 µM [1, 54]: 0.6% | IC50 [12]: 14 nM

Cn1c(=O)c2[nH]cnc2n(C)c1=O.Cn1c(=O)c2[nH]cnc2n(C)c1=O.NCCN [Aminophylline (Truphylline)]
Parasite inhibition (%) mean [13]: 0.8% | IC50 [14]: 120000 nM

CCOc1ccn(-c2ccc(F)cc2)c(=O)c1C(=O)Nc1ccc(Oc2ccnc(N)c2Cl)c(F)c1 [BMS 777607]
inhibition of growth at 5 µM [1, 54]: 80.6% | IC50 [15]: 4.3 nM | viability at 72 h [16]: 72% | IC50 [17]: 3.9 nM | IC50 [18]: 1.8 nM

COc1cc(Nc2c(C#N)cnc3cc(OCCCN4CCN(C)CC4)c(OC)cc23)c(Cl)cc1Cl [Bosutinib (SKI-606)]
inhibition of growth at 5 µM [1, 54]: 22.4% | IC50 [19]: […]

CCOc1ccc(Cc2cc([C@@H]3O[C@H](CO)[C@@H](O)[C@H](O)[C@H]3O)ccc2Cl)cc1 [Dapagliflozin]
inhibition of growth at 5 µM [1, 55]: 1.9% | EC50 [20]: 1.1 nM

Nc1nc(=O)n([C@@H]2CS[C@H](CO)O2)cc1F [Emtricitabine (Emtriva)]
inhibition of growth at 5 µM [1, 55]: 0.4% | IC50 [21]: 27700 nM

O=S(=O)(NCCNC/C=C/c1ccc(Br)cc1)c1cccc2cnccc12 [H 89 2HCl, reference compound]
inhibition at 5 µM ([1]; read-out: Parasite inhibition (%) Mean ± SD): 83.5 ± 1.8% | IC50 [22]: 2800 nM | IC50 [23]: 120 nM | viability at 72 h, 5 µM ([16]; Host viability (%) Mean ± SD): 89.4 ± 4.6% | viability at 72 h [16]: 89.4% | IC50 [24]: 135 nM | IC50 [25]: […] | IC50 [26]: 80 nM

CCS(=O)(=O)Nc1ccc2c(c1)/C(=C(/Nc1ccc(CN3CCCCC3)cc1)c1ccccc1)C(=O)N2 [Hesperadin]
inhibition of growth at 5 µM [1, 54]: 66.8% | IC50 [27]: 250 nM | IC50 [28]: 40 nM

CCCNC(=O)Nc1ccc(Oc2ncnc3cc(OC)c(OC)cc23)cc1Cl [KRN 633]
inhibition of growth at 5 µM [1, 54]: 73.8% | viability at 72 h [16]: 70.6% | IC50 [29]: 160 nM | IC50 [30]: 965 nM | IC50 [31]: 9850 nM | IC50 [32]: 170 nM

C[C@@H]1CN(CC(=O)Nc2ccc3c(c2)Cc2cccc(-c4cc(=O)cc(N5CCOCC5)o4)c2S3)C[C@H](C)O1 [KU-60019]
inhibition of growth at 5 µM [1, 54]: 2% | IC50 [33]: 6.3 nM

C[C@@]1(c2cc(-c3cncnc3)c(F)cc2F)CCSC(N)=N1 [LY2811376]
inhibition of growth at 5 µM [1, 54]: -19.7% | IC50 [34]: […] | EC50 [35]: ~300 nM

CCNC(=O)c1cc2c(-c3cc(OCCN4CCCC4)c(Cl)cc3Cl)nc(N)nc2s1 [NVP-BEP800]
inhibition of growth at 5 µM [1, 55]: 0.7% | IC50 [36]: 58 nM

CC(=O)c1c(C)c2cnc(Nc3ccc(N4CCNCC4)cn3)nc2n(C2CCCC2)c1=O.O=S(=O)(O)CCO [PD 0332991 (Palbociclib) Isethionate]
IC50 [37]: 16 nM | Parasite inhibition (%) mean [13]: 2.6% | IC50 [38]: […]

CCCCCCCCCCCCc1ccc(S(=O)(=O)Nc2nncs2)cc1 [PHT-427]
inhibition of growth at 5 µM [1, 54]: 35.7% | Ki [39]: 5200 nM

Nc1cccc2c1C(=O)N(C1CCC(=O)NC1=O)C2=O (stereo not shown) [Pomalidomide]
inhibition of growth at 5 µM [1, 54]: 0.8% | IC50 [40]: 13 nM

C#CCC(Cc1cnc2nc(N)nc(N)c2n1)c1ccc(C(=O)N[C@@H](CCC(=O)O)C(=O)O)cc1 (stereo partly shown) [Pralatrexate (Folotyn)]
inhibition of growth at 5 µM [1, 54]: 20.4% | IC50 [41]: < 300 nM

CN1CCN(CCOc2cc(OC3CCOCC3)c3c(Nc4c(Cl)ccc5c4OCO5)ncnc3c2)CC1 [Saracatinib (AZD0530)]
inhibition of growth at 5 µM [1, 54]: 32.6% | IC50 [42]: 30 nM

CC(C)[C@H](O)C(=O)N[C@@H](C)C(=O)N[C@H]1C(=O)N(C)CCc2ccccc21 [Semagacestat (LY450139)]
inhibition of growth at 5 µM [1, 54]: -9.8% | IC50 ([43]; Aβ38, read-out: IC50, γ-secretase, Aβ38): 12 nM | IC50 ([43]; Aβ40, read-out: IC50, γ-secretase, Aβ40): 12.1 nM | IC50 ([43]; Aβ42, read-out: IC50, γ-secretase, Aβ42): 10.9 nM | IC50 [44]: 14.1 nM

Nc1cccc(-c2cc3c(Oc4cccc(O)c4)ncnc3[nH]2)c1 [TWS119]
inhibition of growth at 5 µM [1, 54]: 40.8% | IC50 [45]: 30 nM

CCC[C@H](NC(=O)[C@H]1[C@H]2CCC[C@H]2CN1C(=O)[C@@H](NC(=O)[C@@H](NC(=O)c1cnccn1)C1CCCCC1)C(C)(C)C)C(=O)C(=O)NC1CC1 [Telaprevir (VX-950)]
inhibition of growth at 5 µM [1, 54]: 4.4% | IC50 [46]: 350 nM

COc1ccc2cc(-c3[nH]c(-c4ccc([S+](C)[O-])cc4)nc3-c3ccncc3)ccc2c1 (stereo not shown) [Tie2 kinase inhibitor]
inhibition of growth at 5 µM [1, 54]: 13% | IC50 [47]: 250 nM

CC(C)C[C@@H](C(=O)N[C@H](C(=O)OC1CCCC1)c1ccccc1)[C@H](O)C(=O)NO [Tosedostat (CHR2797)]
inhibition of growth at 5 µM [1, 54]: 85.6% | IC50 [48]: 100 nM | viability at 72 h [16]: 88.8% | IC50 [49]: 150 nM | IC50 [50]: 220 nM

Cc1ccc(NC(=O)C2(c3ccc4c(c3)OC(F)(F)O4)CC2)nc1-c1cccc(C(=O)O)c1 [VX-809]
inhibition of growth at 5 µM [1, 54]: 9.4% | EC50 [51]: 100 nM

BIX 02188
Parasite inhibition (%) mean [13]: 13.7% | IC50 [52]: 4.3 nM

Bacitracin zinc
Parasite inhibition (%) mean [13]: 9.0% | IC50 [53]: 10000 nM
